Data: patent US12157740B2, “Triazolopyridines and triazolopyrimidines that lower stress-induced p-tau” (NantNeuro, LLC, priority 2015, dated 2024)
Values belong to the compound of their own block, whether it stands above or below them.

Key:
[1] = in vivo pharmacokinetics, plasma and brain levels; parameters: species or system mouse; conditions: for brain levels after subcutaneous injection: peak for J14 and J19; for time of peak levels after SQ injection: plasma and brain (J19: brain); for levels after oral delivery compared with injection: J32: plasma and brain
[2] = tested on: tau and p-tau in SH-Sy5Y cells; experiment: screens for tau and p-tau levels in SH-Sy5Y cells (no CRF stated); format: cell-based; conditions: for tau and/or p-tau lowering effect compared with J03: SH-Sy5Y screens (J04: p-tau only, FIG. 19; J17: FIGS. 21A-B; J14: FIG. 28A)
Description: As described below, in vitro studies were performed using SHSY-5Y cells. These cells are a useful neurological model that differentiate into cells with morphological and biochemical characteristics of mature neurons including mature isoforms of tau. […]

mice = experiment: J14 daily SQ injection for 12 days in mice; format: in vivo, mouse
Description: (§1) Animal experiments were performed using J20 mice. The J20 mouse is a model of for Alzheimer's disease. This model overexpresses human APP with two mutations linked to familial Alzheimer's disease (the APP KM670/671NL (Swedish) and 5APP V717F (Indiana) mutations).
FIGS. 31A-31F depict total sAPPα, Aβ1-40, and Aβ1-42, and tau, p-tau, and p-tau/tau ratio, respectively, after daily SQ injection at 10 mkd does for 12 days.

[3] = tested on: tau and phospho-tau in SHSY-5Y cells; experiment: CRF-induced tau, p-tau and sAPPα changes in SHSY-5Y cells; format: cell-based; conditions: for p-tau/tau ratio: FIG. 32C
J20 mice = experiment: J17 pilot study in J20 mice (oral, 28 days); format: in vivo, mouse
Description: as §1
In a J17 pilot study (#1 pilot study) male and female J20 mice were housed singly and treated with J17 at 10 rnkd by oral delivery for 28 days.

tau and p-tau = experiment: effect of J03 and J19 on tau and p-tau (FIG. 39E-39F, system not given)
Excerpt: JI9 decreased tau and both J03 and JI9 decreased p-tau (FIG. 39E). Therefore, while the p-tau/tau ratio looks unchanged for J19 FIG. 39F. This is due to the tau decrease and not due to a lack of effect.

[4] = primary screen in SH-Sy5Y cells, FIG. 19
[5] = CRF-1 at 0 nM, 50 nM and 100 nM, FIGS. 29B-29C
[6] = CRF-1 at 100 nM for 3 days, compound at 20 nM, FIG. 29A
[7] = compared to a control J03, FIGS. 33A-33B
[8] = 10 mg/kg intraperitoneal, FIG. 33D

Compound: CCC(COC)n1nnc2c(Nc3ccc(OC)cc3C)nc(C)nc21 (centres unmarked) [J04]
- clearance after injection compared with oral delivery ([1]; SQ injection, FIG. 20A): slower
- brain levels after SQ injection ([1]; dose not given, FIG. 20A): ~55 ng/g
- brain levels after oral delivery ([1]; dose not given, FIG. 20A): ~55 ng/g
- tau and/or p-tau lowering effect compared with J03 [2]: same level as J03
- p-tau [2, 4]: did lower
- tau [2, 4]: did not lower

Compound: CCC(COC)n1nnc2c(N(C)c3c(C)cc(C)cc3C)nc(C)nc21 (centres unmarked) [J14]
- brain/plasma ratio after SQ injection ([1]; 10 mg/kg SQ): 0.6
- plasma level at peak after subcutaneous injection ([1]; 10 mg/kg SQ, FIG. 30A): 798 ng/mL
- brain levels after subcutaneous injection ([1]; 10 mg/kg SQ): 485 ng/g
- time of peak levels after SQ injection ([1]; 10 mg/kg SQ): 2 h
- time of peak brain levels after oral feeding ([1]; 10 mg/kg oral, FIG. 30B): 2 h
- brain levels after oral delivery ([1]; 10 mg/kg oral, peak for J14): 13.3 ng/g
- brain:plasma ratio after oral delivery ([1]; oral feeding at 10 mg/kg): 1.33
- tau protein (mice; B254 mice (Swedish, Indiana and D664A APP mutations), trend for both vehicle and J14 treated, FIGS. 31D-31F): trend for lower levels
- Aβ1-40 (mice; daily SQ injection 10 mkd for 12 days, FIG. 31B): trend toward decrease
- Aβ1-42 (mice; daily SQ injection 10 mkd for 12 days, FIG. 31C): trend toward decrease
- sAPPα (mice; daily SQ injection 10 mkd for 12 days, compared to vehicle treated mice, FIG. 31A): decrease
- tau and/or p-tau lowering effect compared with J03 [2]: more than J03
- p-tau ([2]; screen of FIG. 28A): decreased
- total tau ([2]; screen of FIG. 28A): decreased
- p-tau ([2]; screen of FIG. 28B): neither J14 nor J03 decreased
- total tau ([2]; screen of FIG. 28B): neither J14 nor J03 decreased
- p-tau [3, 5]: decreasing
- p-tau and tau decrease compared with J03 [3, 5]: more than J03
- tau [3, 5]: decreasing
- p-tau [3, 6]: decreased
- total tau [3, 6]: decreased

Compound: CCC(COC)Nc1nc(C)nc2c1nnn2-c1ccc(OC)cc1C (centres unmarked) [J17]
- Aβ1-40/Aβ1-42 ratio (J20 mice; FIG. 26C): no significant difference
- Aβ1-42 (J20 mice; data from all mice, FIG. 26A): no significant differences
- activity (J20 mice; male and female J20 mice housed singly, oral 28 days, not significant, FIG. 24A): lowered
- p-tau (J20 mice; male mice, FIG. 27B): slightly lower
- p-tau/tau ratio (J20 mice; male mice, FIG. 27C): lower still
- Aβ1-42 (J20 mice; male mice, low outlier from one sibling pair eliminated, FIG. 26B): significant reduction
- Tau (J20 mice; males, FIG. 27A): increased
- sAPPβ (J20 mice; oral 28 days, FIG. 25B): decrease
- novel object preference, overall (J20 mice; oral 28 days, all mice, FIG. 24B): increase with J17 was significant
- sAPPα (J20 mice; oral 28 days, both genders, FIG. 25A): increase with J03 but not J17
- ratio sAPPα/sAPPβ (J20 mice; oral 28 days, males, FIG. 25C): greater
- plasma levels after subcutaneous injection ([1]; 10 mg/kg SQ, FIG. 23A): ~4000 ng/m
- brain levels after subcutaneous injection ([1]; 10 mg/kg SQ): ~400 ng/g
- plasma levels relative to brain levels after oral delivery ([1]; 10 mg/kg oral, FIG. 23B): ~10 fold
- brain levels after oral delivery ([1]; 10 mg/kg oral, peak for J14): ~50 ng/g
- tau ([2]; SH-Sy5Y cells, FIG. 21A): significantly lower
- p-tau ([2]; SH-Sy5Y cells, FIG. 21B): significantly lower
- tau and/or p-tau lowering effect compared with J03 [2]: greater
- tau after exposure to CRF ([3]; FIG. 21D): decreased
- p-tau after exposure to CRF ([3]; FIG. 21E): decreased
- p-tau with increasing concentrations of CRF ([3]; seen at all concentrations of CRF tested, excluding 0, FIG. 22C): decrease
- sAPPα with increasing concentrations of CRF ([3]; seen without CRF and at 50 nM, not at other concentrations, FIG. 22A): decrease
- tau with increasing concentrations of CRF ([3]; seen without CRF and at 50 and 100 nM, FIG. 22B): decrease
- sAPPα after exposure to CRF ([3]; versus control, FIG. 21C): the same for control as for J17

Compound: CCC(COC)n1nnc2c(N(C)c3ccc(OC)cc3C)nc(C)nc21 (centres unmarked) [J30]
- total tau levels [2, 7]: lowered

Continued, in another order:

- brain levels after subcutaneous injection ([1]; 10 mg/kg SQ): ~190 ng/g
- time of peak levels after SQ injection ([1]; 10 mg/kg SQ): 4 h
- levels after oral delivery compared with injection ([1]; 10 mg/kg oral): much lower
- persistence of brain levels after SQ injection ([1]; 10 mkd SQ, FIG. 32G): relatively high until 8 hours
Compound: CCC(COC)Nc1nc(C)nc2c1nnn2-c1ccc(Cl)cc1C (centres unmarked) [J19, 3-(4-Chloro-2-methylphenyl)-N-(1-methoxybutan-2-yl)-5-methyl-3H-[1,2,3]triazolo[4,5-d]pyrimidin-7-amine]
- p-tau (tau and p-tau; FIG. 39E): decreased
- tau (tau and p-tau; FIG. 39E): decreased
- p-tau/tau ratio (tau and p-tau; FIG. 39F as printed, due to the tau decrease): unchanged
- p-tau/tau ratio ([3]; at 50 and 100 nM CRF): highly significantly decreased
- tau ([3]; in the absence of CRF and in the presence of 100 nM CRF, FIG. 32A): trend to decrease
- p-tau/tau ratio ([3]; in the absence of CRF): decreased
- p-tau ([3]; in the presence and absence of CRF, FIG. 32B): significantly reduced
- sAPPα ([3]; with and without CRF, FIG. 32D): trend for sAPPα to be higher

- brain/plasma ratio after SQ injection ([1]; 10 mg/kg SQ): 0.75
- time of peak levels after SQ injection ([1]; 10 mg/kg SQ): 1 h
- clearance from brain after IP injection [1, 8]: cleared out slowly over 8 hours
- time of peak brain levels after IP injection [1, 8]: 2 h
- levels after oral delivery compared with injection ([1]; 10 mg/kg oral): much lower
Compound: CCC(COC)N(C)c1nc(C)nc2c1nnn2-c1c(C)cc(C)cc1C (centres unmarked) [J32]
- p-tau/tau ratio ([2]; 1p M of J32 in SH-SY5Y cells, compared to J03 and a control, FIG. 33C): significant decrease
- p-tau/tau ratio [2, 7]: significantly lowered
